Assay results from ChEMBL document CHEMBL4052650, “Halogen-substituted catechol bisphosphates are potent and selective inhibitors of the transcription factor STAT5b” (Bioorg Med Chem, 2017).

Tests used:
[1] = species: Homo sapiens; test: Selectivity factor, ratio of IC50 for displacement of 5-carboxyfluorescein-GY(PO3H2)LVLDKW from STAT5A SH2 domain (unknown origin) to IC50 for displacement of 5-carboxyfluorescein-GY(PO3H2)LVLDKW from STAT5B SH2 domain (unknown origin)
[2] = target: T1, Signal transducer and activator of transcription 5B (Homo sapiens, UniProt P51692); test: Displacement of 5-carboxyfluorescein-GY(PO3H2)LVLDKW from STAT5B SH2 domain (unknown origin) pretreated for 1 hr followed by fluorescent tracer addition after 1 hr by fluorescence polarization assay
T1 sequence (P51692 whole entry): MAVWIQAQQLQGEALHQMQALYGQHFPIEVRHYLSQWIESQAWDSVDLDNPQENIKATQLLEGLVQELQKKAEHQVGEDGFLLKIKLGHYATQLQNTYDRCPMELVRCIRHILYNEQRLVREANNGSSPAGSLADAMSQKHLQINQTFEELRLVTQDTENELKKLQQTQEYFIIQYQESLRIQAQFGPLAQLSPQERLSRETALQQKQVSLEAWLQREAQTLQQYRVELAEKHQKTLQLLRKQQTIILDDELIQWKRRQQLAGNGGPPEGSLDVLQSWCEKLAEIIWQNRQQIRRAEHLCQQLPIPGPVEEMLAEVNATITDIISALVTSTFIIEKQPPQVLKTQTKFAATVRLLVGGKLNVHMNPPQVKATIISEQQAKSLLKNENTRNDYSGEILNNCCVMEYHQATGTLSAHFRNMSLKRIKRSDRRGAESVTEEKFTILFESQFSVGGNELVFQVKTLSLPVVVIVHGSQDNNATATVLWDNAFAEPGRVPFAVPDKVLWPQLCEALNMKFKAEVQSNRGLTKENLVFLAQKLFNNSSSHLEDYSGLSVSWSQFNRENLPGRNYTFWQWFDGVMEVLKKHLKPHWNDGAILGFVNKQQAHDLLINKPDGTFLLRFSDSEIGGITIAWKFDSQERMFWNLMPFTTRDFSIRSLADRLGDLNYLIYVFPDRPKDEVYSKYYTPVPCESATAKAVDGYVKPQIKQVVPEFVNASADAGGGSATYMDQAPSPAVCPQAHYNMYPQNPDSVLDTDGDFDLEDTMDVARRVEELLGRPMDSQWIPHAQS

[3] = target: T2, Signal transducer and activator of transcription 5A (Homo sapiens, UniProt P42229); test: Displacement of 5-carboxyfluorescein-GY(PO3H2)LVLDKW from STAT5A SH2 domain (unknown origin) pretreated for 1 hr followed by fluorescent tracer addition after 1 hr by fluorescence polarization assay
T2 sequence (P42229 whole entry): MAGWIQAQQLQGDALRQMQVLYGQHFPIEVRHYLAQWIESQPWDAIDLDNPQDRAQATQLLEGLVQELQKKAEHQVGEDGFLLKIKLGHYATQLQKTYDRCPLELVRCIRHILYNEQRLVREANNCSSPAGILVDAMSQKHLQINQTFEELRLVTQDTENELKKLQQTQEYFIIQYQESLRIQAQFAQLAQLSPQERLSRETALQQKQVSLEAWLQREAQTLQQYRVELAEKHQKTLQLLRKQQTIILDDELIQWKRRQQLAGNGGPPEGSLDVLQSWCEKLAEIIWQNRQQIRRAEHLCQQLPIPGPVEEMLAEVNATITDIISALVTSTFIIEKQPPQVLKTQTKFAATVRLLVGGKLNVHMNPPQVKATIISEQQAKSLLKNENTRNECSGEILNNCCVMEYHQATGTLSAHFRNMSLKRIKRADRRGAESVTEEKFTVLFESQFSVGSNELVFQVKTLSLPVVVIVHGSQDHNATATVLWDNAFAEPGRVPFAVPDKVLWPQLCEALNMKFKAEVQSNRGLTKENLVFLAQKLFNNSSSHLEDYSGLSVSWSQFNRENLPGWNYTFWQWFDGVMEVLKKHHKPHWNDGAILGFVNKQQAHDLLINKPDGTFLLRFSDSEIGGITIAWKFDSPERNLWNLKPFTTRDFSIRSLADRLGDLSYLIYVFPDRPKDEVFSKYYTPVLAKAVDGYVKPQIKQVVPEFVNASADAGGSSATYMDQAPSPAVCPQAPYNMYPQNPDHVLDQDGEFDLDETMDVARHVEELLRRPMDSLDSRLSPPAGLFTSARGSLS

Row | Structure (SMILES) | Ratio IC50 [1] | IC50 [2] [µM] | IC50 [3] [µM]
1 | O=C(COc1ccc2cc(C(=O)Nc3cccc(Br)c3)ccc2c1)NCc1ccc(OP(=O)(O)O)c(OP(=O)(O)O)c1 | 37 | 0.29 | 10.6
2 | O=C(COc1ccc(C(=O)Nc2cccc(F)c2)cc1)NCc1ccc(OP(=O)(O)O)c(OP(=O)(O)O)c1 | 19 | 0.62 | 11.9
3 | O=C(COc1ccc(C(=O)Nc2ccc(F)cc2)cc1)NCc1ccc(OP(=O)(O)O)c(OP(=O)(O)O)c1 | 24 | 0.35 | 8.3
4 | O=C(COc1ccc(C(=O)Nc2cccc(Br)c2)cc1)NCc1ccc(OP(=O)(O)O)c(OP(=O)(O)O)c1 | 16 | 0.66 | 10.5
5 | O=C(COc1ccc(C(=O)Nc2ccc(Br)cc2)cc1)NCc1ccc(OP(=O)(O)O)c(OP(=O)(O)O)c1 | 22 | 0.39 | 8.6
6 | O=C(COc1ccc(C(=O)Nc2ccc(Cl)cc2)cc1)NCc1ccc(OP(=O)(O)O)c(OP(=O)(O)O)c1 | 22 | 0.33 | 7.4
7 | O=C(COc1ccc(C(=O)Nc2ccccc2)cc1)NCc1ccc(OP(=O)(O)O)c(OP(=O)(O)O)c1 | 35 | 0.28 | 9.7
8 | O=C(COc1ccc(C(=O)Nc2cccc(Cl)c2)cc1)NCc1ccc(OP(=O)(O)O)c(OP(=O)(O)O)c1 | 20 | 0.46 | 9.1

Now those with a lower IC50 [2], led by results:

Row | Ratio IC50 [1] | IC50 [2] [µM] | IC50 [3] [µM] | Structure (SMILES)
9 | 33 | 0.27 | 8.9 | O=C(COc1ccc2cc(C(=O)Nc3ccc(Cl)cc3)ccc2c1)NCc1ccc(OP(=O)(O)O)c(OP(=O)(O)O)c1
10 | 28 | 0.26 | 7.3 | O=C(COc1ccc2cc(C(=O)Nc3cccc(Cl)c3)ccc2c1)NCc1ccc(OP(=O)(O)O)c(OP(=O)(O)O)c1
11 | 32 | 0.24 | 7.6 | O=C(COc1ccc2cc(C(=O)Nc3ccc(Br)cc3)ccc2c1)NCc1ccc(OP(=O)(O)O)c(OP(=O)(O)O)c1
12 | 36 | 0.234 | 8.4 | O=C(COc1ccc2cc(C(=O)Nc3cccc(F)c3)ccc2c1)NCc1ccc(OP(=O)(O)O)c(OP(=O)(O)O)c1
13 | 33 | 0.22 | 7.2 | O=C(COc1ccc2cc(C(=O)Nc3ccc(F)cc3)ccc2c1)NCc1ccc(OP(=O)(O)O)c(OP(=O)(O)O)c1
